Results: BigSolDB 2.1

Nc1ccccc1N
solubility (mole fraction)
Conditions | in acetonitrile | in ethanol | in methanol | in water
283.15 K | 0.0558 | 0.0139 | 0.0516 | 0.00447
285.65 K | 0.0595 | 0.0144 | 0.0533 | 0.00467
288.15 K | 0.0643 | 0.0148 | 0.0554 | 0.00495
290.65 K | 0.0685 | 0.0154 | 0.0572 | 0.00517
293.15 K | 0.0752 | 0.016 | 0.0596 | 0.00545
295.65 K | 0.0795 | 0.0165 | 0.0613 | 0.00573
298.15 K | 0.0858 | 0.0172 | 0.0637 | 0.00608
300.65 K | 0.0916 | 0.0177 | 0.0658 | 0.0064
303.15 K | 0.0987 | 0.0184 | 0.0685 | 0.00678
305.65 K | 0.104 | 0.019 | 0.0708 | 0.00717
308.15 K | 0.113 | 0.0199 | 0.0732 | 0.00762
310.65 K | 0.12 | 0.0205 | 0.0758 | 0.00803
313.15 K | 0.128 | 0.0213 | 0.0795 | 0.00855
315.65 K | 0.135 | 0.0221 | 0.0828 | 0.00923
318.15 K | 0.143 | 0.0233 | 0.0868 | 0.0102
